Laboratory results from patent US9067905B2, “Sulphone compounds and methods of making and using same” (Zafgen, Inc., priority 2009, dated 2015).
Where a name gives a salt, the structure may show the parent alone.

Molecular target: T1, recombinant human MetAP2 (Homo sapiens, UniProt P50579)
T1 construct: Flag; made in house; host or cells: Sf9 insect cells
Test: Inhibition of recombinant human MetAP2 activity (Amplex red fluorescence assay)
Assay type: biochemical
Conditions: manganese Flag-MetAP2, 0.75 mM Methionine-Alanine-Serine substrate, 30 minutes at 25° C., pH 7.5, 1% DMSO
Description: Compounds are tested for their capacity to inhibit recombinant human MetAP2 activity using the following assay.
Human recombinant Flag-MetAP2 expressed in Sf9 cells followed by affinity purification and EDTA treatment to remove endogenous active site cation is dialysed against MnCl2 to produce the manganese enzyme used in the assay. The assay is carried out for 30 minutes at 25° C. in 50 mM HEPES buffer containing 100 mM NaCl, pH 7.5 the presence of 0.75 mM Methionine-Alanine-Serine (MAS) substrate and 50 μg/ml amino acid oxidase using a dilution of purified MetAP2 giving approximately 50,000 RFU control activity. Cleavage of the substrate by MetAP2 and oxidation of free methionine by amino acid oxidase is detected and quantified using fluorescence generated by Amplex red (10-acetyl-3,7-dihydroxyphenoxazine) in combination with horseradish peroxidase which detects H2O2 released during the oxidation step. The fluorescent signal is detected using a multiwell fluorimeter. Compounds are diluted in DMSO prior to addition to assay buffer, the final DMSO concentration in the assay being 1%.
The IC50 is defined as the concentration at which a given compound achieves 50% inhibition of control. IC50 values are calculated using the XLfit software package (version 2.0.5).

T1 sequence (P50579 whole entry): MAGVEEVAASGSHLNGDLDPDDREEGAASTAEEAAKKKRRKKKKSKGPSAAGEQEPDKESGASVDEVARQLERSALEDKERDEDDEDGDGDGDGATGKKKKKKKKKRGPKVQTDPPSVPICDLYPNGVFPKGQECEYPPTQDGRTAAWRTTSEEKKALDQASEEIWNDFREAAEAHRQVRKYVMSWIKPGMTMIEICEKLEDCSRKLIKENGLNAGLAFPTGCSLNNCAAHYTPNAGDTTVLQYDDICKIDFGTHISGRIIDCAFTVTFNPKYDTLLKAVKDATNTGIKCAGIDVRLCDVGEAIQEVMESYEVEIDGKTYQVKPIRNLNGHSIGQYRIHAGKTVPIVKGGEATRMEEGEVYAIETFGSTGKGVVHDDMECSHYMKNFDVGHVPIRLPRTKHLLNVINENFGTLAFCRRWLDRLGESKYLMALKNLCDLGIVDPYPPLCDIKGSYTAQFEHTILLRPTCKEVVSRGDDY

Row | SMILES | IC50 [nM]
1 | CCN(CC)CCCc1ccccc1S(=O)(=O)Cc1ccc(-c2ccoc2)c(OC)c1C(=O)O [6-[2-(3-Diethylaminopropyl)benzenesulphonylmethyl]-3-(furan-3-yl)-2-methoxybenzoic acid] | < 200
2 | COc1c(-c2cccnc2)ccc(CS(=O)(=O)c2ccccc2)c1C(=O)O [6-(Benzenesulphonylmethyl)-2-methoxy-3-(3-pyridyl)benzoic acid] | > 2000
3 | CCOc1c(-c2ccoc2)ccc(CS(=O)(=O)c2ccccc2)c1C(=O)O [6-(Benzenesulphonylmethyl)-2-ethoxy-3-(furan-3-yl)benzoic acid] | 200 to 2000
4 | COc1c(-c2ccoc2)ccc(CS(=O)(=O)C2C3CCC2CC3)c1C(=O)O (centres unmarked) [6-(Bicyclo[2.2.1]heptane-7-ylsulphonylmethyl)-3-(furan-3-yl)-2-methoxybenzoic acid] | 200 to 2000
5 | CC(N)COc1c(-c2ccoc2)ccc(CS(=O)(=O)c2ccccc2)c1C(=O)O (centres unmarked) [2-(2-Aminopropoxy)-6-(benzenesulphonylmethyl)-3-(furan-3-yl)-benzoic acid hydrochloride] | > 2000
6 | COc1c(-c2ccoc2)ccc(CS(=O)(=O)N2CCCCC2)c1C(=O)O [3-(Furan-3-yl)-2-methoxy-6-(piperidine-1-ylsulphonylmethyl)benzoic acid] | < 200
7 | Cc1occc1-c1ccc(CS(=O)(=O)c2ccccc2)c(C(=O)O)c1 [2-(Benzenesulphonylmethyl)-5-(2-methylfuran-3-yl)benzoic acid] | 200 to 2000
8 | COc1c(-n2cccn2)ccc(CS(=O)(=O)c2ccccc2)c1C(=O)O [6-(Benzenesulphonylmethyl)-2-methoxy-3-(pyrazol-1-yl)benzoic acid] | > 2000
9 | COc1c(-c2ccoc2)ccc(CS(=O)(=O)c2cccc(F)c2)c1C(=O)O [6-(3-Fluorobenzenesulphonylmethyl)-3-(furan-3-yl)-2-methoxybenzoic acid] | < 200
10 | CCN(CC)CCNc1ccccc1S(=O)(=O)Cc1ccc(-c2ccoc2)c(OC)c1C(=O)O [6-[2-(2-Diethylaminoethylamino)benzenesulphonylmethyl]-3-(furan-3-yl)-2-methoxybenzoic acid] | 200 to 2000
11 | CCc1ccc(CS(=O)(=O)c2ccc(Cl)cc2)c(C(=O)O)c1OC [6-(4-Chlorobenzenesulphonylmethyl)-3-ethyl-2-methoxy-benzoic acid] | > 2000
12 | NCCOc1c(-c2ccoc2)ccc(CS(=O)(=O)c2cccc(Cl)c2)c1C(=O)O [2-(2-Aminoethoxy)-6-(3-chlorobenzenesulphonylmethyl)-3-(furan-3-yl)benzoic acid hydrochloride] | < 200
13 | COc1c(-c2ccoc2)ccc(CS(=O)(=O)c2ccccc2Cl)c1C(=O)O [6-(2-Chlorobenzenesulphonylmethyl)-3-(furan-3-yl)-2-methoxybenzoic acid] | 200 to 2000
14 | CCc1ccc(CS(=O)(=O)c2ccccc2)c(C(=O)O)c1 [2-(Benzenesulphonylmethyl)-5-ethylbenzoic acid] | 200 to 2000
15 | CNc1c(-c2ccoc2)ccc(CS(=O)(=O)c2ccccc2)c1C(=O)O [6-(Benzenesulphonylmethyl)-3-(furan-3-yl)-2-methylamino benzoic acid] | < 200
16 | NCCOc1c(-c2ccoc2)ccc(CS(=O)(=O)c2ccccc2)c1C(=O)O [2-(2-Aminoethoxy)-6-(benzenesulphonylmethyl)-3-(furan-3-yl)benzoic acid hydrochloride] | < 200
17 | COc1c(-c2ccco2)ccc(CS(=O)(=O)c2ccccc2)c1C(=O)O [6-(Benzenesulphonylmethyl)-3-(furan-2-yl)-2-methoxy-benzoic acid] | > 2000
18 | Cn1nccc1-c1ccc(CS(=O)(=O)c2ccccc2)c(C(=O)O)c1 [2-(Benzenesulphonylmethyl)-5-(2-methyl-2H-pyrazol-3-yl)benzoic acid] | > 2000
19 | CCc1c(-c2ccoc2)ccc(CS(=O)(=O)c2ccccc2)c1C(=O)O [6-(Benzenesulphonylmethyl)-2-ethyl-3-(furan-3-yl)benzoic acid] | 200 to 2000
20 | COc1c(-c2ccoc2)ccc(CS(=O)(=O)c2ccccc2C)c1C(=O)O [3-(Furan-3-yl)-2-methoxy-6-(2-methyl-benzenesulphonylmethyl)benzoic acid] | 200 to 2000
21 | COc1c(C)ccc(CS(=O)(=O)c2ccccc2)c1C(=O)O [6-(Benzenesulphonylmethyl)-2-methoxy-3-methyl-benzoic acid] | 200 to 2000
22 | NCCCOc1c(-c2ccoc2)ccc(CS(=O)(=O)c2ccccc2)c1C(=O)O [2-(3-Aminopropoxy)-6-(benzenesulphonylmethyl)-3-(furan-3-yl)benzoic acid hydrochloride] | 200 to 2000

Row | SMILES | IC50 [nM]
23 | COc1c(-c2cncs2)ccc(CS(=O)(=O)c2ccccc2)c1C(=O)O [6-(Benzenesulphonylmethyl)-2-methoxy-3-(thiazol-5-yl)benzoic acid] | 200 to 2000
24 | O=C(O)c1c(CS(=O)(=O)c2ccccc2)ccc(-c2ccoc2)c1OC1CNC1 [2-(Azetidin-3-yloxy)-6-(benzenesulphonylmethyl)-3-(furan-3-yl)-benzoic acid hydrochloride] | > 2000
25 | CCN(CC)C/C=C\c1ccccc1S(=O)(=O)Cc1ccc(-c2ccoc2)c(OC)c1C(=O)O [(Z)-6-((2-(3-(Diethylamino)prop-1-enyl)benzenesulfonyl)methyl)-3-(furan-3-yl)-2-methoxybenzoic acid] | < 200
26 | O=C(O)c1c(CS(=O)(=O)c2ccccc2)ccc(-c2ccoc2)c1OCCO [6-(Benzenesulphonylmethyl)-3-(furan-3-yl)-2-(2-hydroxyethoxy)benzoic acid] | < 200
27 | CCc1ccc(C[S+]([O-])c2ccccc2)c(C(=O)O)c1OC (centres unmarked) [6-(Benzenesulphinylmethyl)-3-ethyl-2-methoxy-benzoic acid] | > 2000
28 | CNCCOc1c(-c2ccoc2)ccc(CS(=O)(=O)c2ccccc2)c1C(=O)O [6-(Benzenesulphonylmethyl)-3-(furan-3-yl)-2-[2-(methylamino)-ethoxy]benzoic acid hydrochloride] | > 2000
29 | COc1cccc(CS(=O)(=O)c2ccccc2C)c1C(=O)O [2-Methoxy-6-(2-methylbenzenesulphonylmethyl)benzoic acid] | > 2000
30 | COc1c(-c2ccoc2)ccc(CS(=O)(=O)c2ccccc2)c1C(=O)O [6-(Benzenesulphonylmethyl)-3-(furan-3-yl)-2-methoxy-benzoic acid] | < 200
31 | COc1ccccc1S(=O)(=O)Cc1ccc(-c2ccoc2)c(OC)c1C(=O)O [3-(Furan-3-yl)-2-methoxy-6-(2-methoxybenzenesulphonylmethyl)-benzoic acid] | 200 to 2000
32 | COc1c(-c2cnsc2)ccc(CS(=O)(=O)c2ccccc2)c1C(=O)O [6-(Benzenesulphonylmethyl)-3-(isothiazol-4-yl)-2-methoxybenzoic acid] | 200 to 2000
33 | COc1c(-c2ccoc2)ccc(CS(=O)(=O)c2cccc(O)c2)c1C(=O)O [3-(Furan-3-yl)-6-(3-hydroxybenzenesulphonylmethyl)-2-methoxy-benzoic acid] | 200 to 2000
34 | O=C(O)c1c(CS(=O)(=O)c2ccccc2)ccc(-c2ccoc2)c1O [6-(benzenesulphonylmethyl)-3-(furan-3-yl)-2-hydroxybenzoic acid] | > 2000
35 | CCN(CC)C/C=C/c1ccccc1S(=O)(=O)Cc1ccc(-c2ccoc2)c(OC)c1C(=O)O [(E)-6-((2-(3-(diethylamino)prop-1-enyl)benzenesulfonyl)methyl)-3-(furan-3-yl)-2-methoxybenzoic acid] | 200 to 2000
36 | CN(C)CCOc1c(-c2ccoc2)ccc(CS(=O)(=O)c2ccccc2)c1C(=O)O [6-(Benzenesulphonylmethyl)-2-(2-dimethylaminoethoxy)-3-(3-furanyl)benzoic acid hydrochloride] | > 2000
37 | N#CCNc1c(-c2ccoc2)ccc(CS(=O)(=O)c2ccccc2)c1C(=O)O [6-(Benzenesulphonylmethyl)-2-(cyanomethylamino)-3-(furan-3-yl)benzoic acid] | < 200
38 | CCN(CC)CCOc1ccccc1S(=O)(=O)Cc1ccc(-c2ccoc2)c(OC)c1C(=O)O [6-[2-(2-Diethylaminoethoxy)benzenesulphonylmethyl]-3-(furan-3-yl)-2-methoxybenzoic acid] | > 2000
39 | CCCc1ccc(CS(=O)(=O)c2ccccc2)c(C(=O)O)c1OC [6-(Benzenesulphonylmethyl)-2-methoxy-3-propyl-benzoic acid] | > 2000
40 | CCc1ccc(C(C)S(=O)(=O)c2ccccc2)c(C(=O)O)c1OC (centres unmarked) [6-(1-Benzenesulphonylethyl)-3-ethyl-2-methoxy-benzoic acid] | 200 to 2000
41 | CN=S(=O)(Cc1ccc(-c2ccoc2)c(OC)c1C(=O)O)c1ccccc1 (centres unmarked) [3-(Furan-3-yl)-2-methoxy-6-[(N-methyl-S-phenylsulphonimidoyl)methyl]benzoic acid] | 200 to 2000
42 | COc1c(-c2ccsc2)ccc(CS(=O)(=O)c2ccccc2)c1C(=O)O [6-(Benzenesulphonylmethyl)-2-methyoxy-3-(thien-3-yl)benzoic acid] | > 2000
43 | NC(=O)COc1c(-c2ccoc2)ccc(CS(=O)(=O)c2ccccc2)c1C(=O)O [6-(Benzenesulphonylmethyl)-2-(carbamoylmethoxy)-3-(furan-3-yl)-benzoic acid] | 200 to 2000
44 | O=C(O)c1c(CS(=O)(=O)c2ccccc2)ccc2ccccc12 [2-(Benzenesulphonylmethyl)naphthalene-1-carboxylic acid] | 200 to 2000
